Literature values, collected in US20140018379A1, “PYRIMIDINE DERIVATIVES” (CONCERT PHARMACEUTICALS INC., priority 2010, published 2014).

Settings: 12th CROI 2005, Abst 160

Cc1cc(/C=C/C#N)cc(C)c1Nc1ccnc(Nc2ccc(C#N)cc2)n1.Cl [rilpivirine, 4-[4-[4-[(E)-2-cyanovinyl]-2,6-dimethylphenylamino]pyrimidin-2-ylamino]benzonitrile hydrochloride]
safety and tolerability in clinical trials: safe and well-tolerated | most commonly reported adverse event (clinical trials): Headache
